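Results reflect a 48-hour exposure of cells in 96-well plates to compound at five concentrations. GI50 marks 50% less growth.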 The source made the active and inactive calls. Rule as the data show it: active = GI50 up to about 1.1 µM and inactive = higher.
How the values were obtained:
Assay in all cases: NCI-60 cell line screen, 48 h
EKVX = system: EKVX
HCC 2998 = system: HCC 2998
HCT-116 = system: HCT-116
HL-60 = system: HL-60
HT-29 = system: HT-29
KM12 = system: KM12
M14 = system: M14
MDA-MB-435 = system: MDA-MB-435
NCI-H460 = system: NCI-H460
OVCAR-5 = system: OVCAR-5
OVCAR-8 = system: OVCAR-8
RPMI-8226 = system: RPMI-8226
RXF 393 = system: RXF 393
SF-539 = system: SF-539
SK-OV-3 = system: SK-OV-3
SNB-19 = system: SNB-19
SW-620 = system: SW-620
T47D = system: T47D
UACC-257 = system: UACC-257
BT-549 = system: BT-549

Measured: GI50

Cc1ccc(N/N=C/C2=CC(C)(C)C(C#N)(C#N)C(O)=C2C#N)cc1
inactive: EKVX 61.1 µM | HCC 2998 37.8 µM | HCT-116 35.4 µM | HL-60 17.3 µM | HT-29 37.8 µM | KM12 32.4 µM | M14 49.4 µM | MDA-MB-435 62.5 µM | NCI-H460 24.6 µM | OVCAR-5 > 100 µM | OVCAR-8 38.4 µM | RPMI-8226 22.2 µM | RXF 393 33.2 µM | SF-539 > 100 µM | SK-OV-3 58.2 µM | SNB-19 86.5 µM | SW-620 24.8 µM | T47D 67.3 µM | UACC-257 38.8 µM

CCN1CCCCC(=N\O)/C(=N/O)CCCC1
inactive: BT-549 > 100 µM | EKVX 26.1 µM | HCT-116 > 100 µM | HL-60 > 100 µM | HT-29 > 100 µM | KM12 > 100 µM | M14 > 100 µM | MDA-MB-435 > 100 µM | NCI-H460 > 100 µM | OVCAR-5 > 100 µM | OVCAR-8 > 100 µM | RPMI-8226 > 100 µM | RXF 393 > 100 µM | SF-539 > 100 µM | SK-OV-3 > 100 µM | SNB-19 > 100 µM | SW-620 > 100 µM | UACC-257 > 100 µM

CCOC(=O)C1(C(=O)OCC)C[C@@H](C)[C@@H](O)C1
inactive: EKVX > 100 µM | HCT-116 > 100 µM | HL-60 89.9 µM | HT-29 > 100 µM | KM12 > 100 µM | M14 > 100 µM | MDA-MB-435 > 100 µM | NCI-H460 > 100 µM | OVCAR-5 > 100 µM | OVCAR-8 > 100 µM | RPMI-8226 > 100 µM | RXF 393 > 100 µM | SF-539 > 100 µM | SK-OV-3 > 100 µM | SNB-19 > 100 µM | SW-620 > 100 µM | UACC-257 > 100 µM

N#CC(C#N)C1CN2CCC1CC2 (stereo not given)
inactive: EKVX > 100 µM | HCC 2998 > 100 µM | HCT-116 > 100 µM | HL-60 > 100 µM | HT-29 > 100 µM | KM12 > 100 µM | M14 > 100 µM | MDA-MB-435 > 100 µM | NCI-H460 > 100 µM | OVCAR-5 > 100 µM | OVCAR-8 79.6 µM | RPMI-8226 > 100 µM | RXF 393 90.4 µM | SF-539 > 100 µM | SK-OV-3 > 100 µM | SNB-19 > 100 µM | SW-620 > 100 µM | T47D > 100 µM | UACC-257 > 100 µM

COc1ccc(N2C(=O)C(=O)N(c3ccccc3[N+](=O)[O-])C2=S)cc1
inactive: EKVX 30.5 µM | HCC 2998 36.1 µM | HCT-116 28.6 µM | HL-60 46 µM | HT-29 33.8 µM | KM12 22.3 µM | MDA-MB-435 27.4 µM | NCI-H460 34.3 µM | OVCAR-5 22.4 µM | OVCAR-8 21.1 µM | RPMI-8226 30.5 µM | RXF 393 18 µM | SF-539 30.1 µM | SK-OV-3 25.1 µM | SNB-19 44.6 µM | SW-620 37.9 µM | T47D 22.6 µM | UACC-257 17.1 µM

O=[N+]([O-])/C(C(Cl)=C(Cl)Cl)=C(/Nc1ccccc1)SCc1ccccc1
inactive: EKVX 21 µM | HCC 2998 24.3 µM | HCT-116 16.6 µM | HL-60 19.1 µM | HT-29 29.6 µM | KM12 15.3 µM | M14 16.9 µM | MDA-MB-435 17.8 µM | NCI-H460 19.8 µM | OVCAR-5 20 µM | OVCAR-8 17.7 µM | RPMI-8226 14.1 µM | RXF 393 19.4 µM | SF-539 23.4 µM | SK-OV-3 52 µM | SNB-19 25.2 µM | SW-620 26.7 µM | T47D 34.6 µM | UACC-257 24 µM

CCCCCCCCCCCCCCCCOP(=O)(O)OCC(N)C(=O)O (stereo not given)
inactive: EKVX 54.1 µM | HCC 2998 15.1 µM | HCT-116 12.5 µM | HT-29 33 µM | KM12 12.6 µM | M14 24.8 µM | MDA-MB-435 22.5 µM | NCI-H460 17.1 µM | OVCAR-5 20.4 µM | OVCAR-8 25.4 µM | RPMI-8226 18.6 µM | RXF 393 23.8 µM | SF-539 21.3 µM | SK-OV-3 21.8 µM | SNB-19 16.4 µM | SW-620 17 µM | T47D 28.2 µM | UACC-257 52.5 µM

Nc1c(S(=O)(=O)c2ccccc2)c2nc3ccccc3nc2n2c1nc1ccccc12
inactive: EKVX > 68.5 µM | HCC 2998 > 78.5 µM | HCT-116 56.2 µM | HL-60 > 100 µM | HT-29 > 84.1 µM | KM12 > 64 µM | M14 16.2 µM | NCI-H460 34.3 µM | OVCAR-5 > 100 µM | OVCAR-8 20.1 µM | RPMI-8226 > 100 µM | RXF 393 > 100 µM | SF-539 11.1 µM | SK-OV-3 > 100 µM | SNB-19 > 51.8 µM | SW-620 > 68.2 µM | UACC-257 > 51.5 µM

From ChEMBL document CHEMBL1201862, “PubChem BioAssay data set” (2004)
